{
  "source": "paper PMC12712055",
  "about": "“3D-MINFLUX nanoscopy reveals distinct allosteric mechanisms for activation and modulation of PIEZO1 by Yoda1” (Nature Communications, 2025)",
  "assay_in_all_cases": "calcium imaging (genetically encoded Ca2+ indicator), peak F/F0",
  "assay_type_in_all_cases": "cell-based",
  "key": {"[1]": {"biological_target": "T1, mouse PIEZO1 (PIEZO1-mScarlet / PIEZO1-ALFA-mGL) (Mus musculus, UniProt E2JF22)", "T1 construct": "full-length; C-terminal mScarlet (SG linker), or ALFA tag inserted after H86 plus C-terminal mGreenLantern (SG linker); transiently expressed in N2a-P1KO (mouse Neuro-2a PIEZO1-knockout) cells; homotrimer"}, "[2]": {"biological_target": "T2, mouse PIEZO1 (PIEZO1-mScarlet / PIEZO1-ALFA-mGL) (Mus musculus, UniProt E2JF22, F1715A/V1714A)", "T2 construct": "full-length; C-terminal mScarlet (SG linker), or ALFA tag inserted after H86 plus C-terminal mGreenLantern (SG linker); transiently expressed in N2a-P1KO (mouse Neuro-2a PIEZO1-knockout) cells; homotrimer", "T2 sequence (E2JF22 whole entry V1714A/F1715A)": "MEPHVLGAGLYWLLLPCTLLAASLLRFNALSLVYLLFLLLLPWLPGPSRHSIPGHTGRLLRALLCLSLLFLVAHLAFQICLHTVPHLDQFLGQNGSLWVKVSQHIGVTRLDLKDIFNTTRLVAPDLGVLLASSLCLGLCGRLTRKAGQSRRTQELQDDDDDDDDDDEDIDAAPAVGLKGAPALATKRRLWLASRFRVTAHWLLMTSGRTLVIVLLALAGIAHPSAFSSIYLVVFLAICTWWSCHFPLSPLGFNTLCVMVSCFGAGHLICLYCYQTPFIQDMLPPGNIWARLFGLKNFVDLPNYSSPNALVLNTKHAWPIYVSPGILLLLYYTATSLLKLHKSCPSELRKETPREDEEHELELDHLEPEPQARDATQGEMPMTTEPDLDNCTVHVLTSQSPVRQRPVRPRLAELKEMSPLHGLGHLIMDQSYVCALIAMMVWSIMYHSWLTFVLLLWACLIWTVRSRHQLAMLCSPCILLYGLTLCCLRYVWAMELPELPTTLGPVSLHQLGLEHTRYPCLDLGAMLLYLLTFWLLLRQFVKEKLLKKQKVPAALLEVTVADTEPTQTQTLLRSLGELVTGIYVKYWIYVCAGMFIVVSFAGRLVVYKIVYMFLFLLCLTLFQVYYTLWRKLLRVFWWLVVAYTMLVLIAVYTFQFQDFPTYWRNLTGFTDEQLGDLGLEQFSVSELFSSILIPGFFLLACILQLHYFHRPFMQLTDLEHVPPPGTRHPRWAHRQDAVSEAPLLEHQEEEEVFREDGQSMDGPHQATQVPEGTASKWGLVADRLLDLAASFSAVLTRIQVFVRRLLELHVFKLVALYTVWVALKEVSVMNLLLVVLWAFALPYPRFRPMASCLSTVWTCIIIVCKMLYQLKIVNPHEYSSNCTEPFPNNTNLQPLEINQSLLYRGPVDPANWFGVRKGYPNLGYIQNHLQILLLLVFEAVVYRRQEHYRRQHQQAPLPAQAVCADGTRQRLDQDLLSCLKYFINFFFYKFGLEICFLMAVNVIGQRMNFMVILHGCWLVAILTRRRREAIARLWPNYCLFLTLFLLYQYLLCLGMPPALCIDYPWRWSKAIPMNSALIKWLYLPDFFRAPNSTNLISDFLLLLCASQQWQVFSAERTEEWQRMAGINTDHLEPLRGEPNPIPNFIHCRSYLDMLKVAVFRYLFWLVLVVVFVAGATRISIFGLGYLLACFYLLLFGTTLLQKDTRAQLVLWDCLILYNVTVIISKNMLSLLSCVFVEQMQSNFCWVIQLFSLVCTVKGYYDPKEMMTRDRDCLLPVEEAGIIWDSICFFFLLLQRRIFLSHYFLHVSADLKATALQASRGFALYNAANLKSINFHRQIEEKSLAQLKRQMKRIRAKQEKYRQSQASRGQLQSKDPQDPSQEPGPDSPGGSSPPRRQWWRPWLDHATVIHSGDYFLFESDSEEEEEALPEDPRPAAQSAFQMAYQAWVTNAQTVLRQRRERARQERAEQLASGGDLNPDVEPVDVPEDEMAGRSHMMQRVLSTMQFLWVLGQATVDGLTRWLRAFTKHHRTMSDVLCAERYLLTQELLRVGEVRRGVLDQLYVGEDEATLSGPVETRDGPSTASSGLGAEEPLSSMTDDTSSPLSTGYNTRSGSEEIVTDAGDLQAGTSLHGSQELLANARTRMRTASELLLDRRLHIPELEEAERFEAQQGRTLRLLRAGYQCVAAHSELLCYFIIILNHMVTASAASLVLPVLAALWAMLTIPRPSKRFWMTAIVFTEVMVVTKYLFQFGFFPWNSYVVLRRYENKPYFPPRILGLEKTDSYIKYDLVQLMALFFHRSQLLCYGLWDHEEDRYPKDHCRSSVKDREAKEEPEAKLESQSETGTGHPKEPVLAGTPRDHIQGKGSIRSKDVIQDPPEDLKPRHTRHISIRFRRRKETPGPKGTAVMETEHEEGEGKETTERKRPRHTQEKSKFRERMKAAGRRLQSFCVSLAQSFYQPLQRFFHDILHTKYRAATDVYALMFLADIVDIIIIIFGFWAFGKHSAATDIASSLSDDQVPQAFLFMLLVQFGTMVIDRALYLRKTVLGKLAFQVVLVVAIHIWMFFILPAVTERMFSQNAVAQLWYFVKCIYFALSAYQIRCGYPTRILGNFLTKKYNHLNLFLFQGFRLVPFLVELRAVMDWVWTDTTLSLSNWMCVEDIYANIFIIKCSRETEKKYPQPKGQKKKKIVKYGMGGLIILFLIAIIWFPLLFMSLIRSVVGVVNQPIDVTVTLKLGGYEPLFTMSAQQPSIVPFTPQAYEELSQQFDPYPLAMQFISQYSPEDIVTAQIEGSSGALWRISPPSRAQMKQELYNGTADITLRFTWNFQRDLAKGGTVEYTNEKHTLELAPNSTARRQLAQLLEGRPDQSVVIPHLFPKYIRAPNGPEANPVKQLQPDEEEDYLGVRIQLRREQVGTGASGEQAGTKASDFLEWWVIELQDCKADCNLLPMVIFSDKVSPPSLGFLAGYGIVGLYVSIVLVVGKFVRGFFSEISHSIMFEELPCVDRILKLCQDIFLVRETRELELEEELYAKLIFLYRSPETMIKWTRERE"}, "[3]": {"biological_target": "T3, mouse PIEZO1 (PIEZO1-mScarlet / PIEZO1-ALFA-mGL) (Mus musculus, UniProt E2JF22, A2094W)", "T3 construct": "full-length; C-terminal mScarlet (SG linker), or ALFA tag inserted after H86 plus C-terminal mGreenLantern (SG linker); transiently expressed in N2a-P1KO (mouse Neuro-2a PIEZO1-knockout) cells; homotrimer", "T3 sequence (E2JF22 whole entry A2094W)": "as the sequence (E2JF22 whole entry V1714A/F1715A) above, with A1714V, A1715F, A2094W counted along it"}},
  "data": [
    {"molecule": "O=C(O)c1ccc(-c2nnc(SCc3c(Cl)cccc3Cl)s2)cc1", "note": "[Yoda2]", "values": [
      {"measurement": "EC50", "setting": "[1]", "result": 30, "unit": "nM"},
      {"measurement": "EC50", "setting": "[2]", "result": 67, "unit": "nM"},
      {"measurement": "EC50", "setting": "[3]", "result": 7030, "unit": "nM"}
    ]}
  ]
}
